# Key:
# human orexin-2 receptor = human orexin-2 receptor (Homo sapiens (Human), UniProt O43614); assay: Human orexin 2 receptor radioligand binding ([3H]-EMPA competition); details: HEK293 cells stably expressing human orexin-2 receptor; [3H]-EMPA 5 nM final; read-out: OR-2 Ki
# How it was run: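 Competition binding on HEK293 cells stably expressing human orexin-2 receptor, using 5 nM final [3H]-EMPA in PBS, compounds 0.1 nM to 10 μM (DMSO ≤0.1%). 60 min at room temperature, then filtration and scintillation counting; nonspecific binding defined with 10 μM of a reference antagonist.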
# human orexin 1 receptor = human orexin 1 receptor (Homo sapiens (Human), UniProt O43613); assay: Human orexin 1 receptor radioligand binding ([3H]-SB674042 competition); details: CHO cells stably expressing human orexin 1 receptor; [3H]-SB674042 4 nM final; read-out: OR-1 Ki
# Chain of human orexin 1 receptor (O43613 whole entry): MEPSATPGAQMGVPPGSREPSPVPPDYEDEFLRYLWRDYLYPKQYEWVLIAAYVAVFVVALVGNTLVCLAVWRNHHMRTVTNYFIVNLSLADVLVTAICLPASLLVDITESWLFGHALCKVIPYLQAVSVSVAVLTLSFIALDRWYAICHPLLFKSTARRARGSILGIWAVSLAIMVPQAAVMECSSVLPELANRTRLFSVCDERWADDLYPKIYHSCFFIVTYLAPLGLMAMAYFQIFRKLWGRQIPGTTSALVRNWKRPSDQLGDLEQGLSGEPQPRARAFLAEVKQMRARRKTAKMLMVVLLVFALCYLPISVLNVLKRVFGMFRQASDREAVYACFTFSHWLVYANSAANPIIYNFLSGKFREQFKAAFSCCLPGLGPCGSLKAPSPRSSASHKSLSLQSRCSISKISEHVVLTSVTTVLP
# How it was run: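 CHO cells stably expressing human OX1R incubated 60 min at room temperature with [3H]-SB674042 and compounds (7 concentrations, 0.1 nM–10 μM; DMSO ≤0.1%) in PBS. Nonspecific binding defined with 10 μM of a reference urea antagonist; bound radioactivity measured by filtration and scintillation counting.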
# Chain of human orexin-2 receptor (O43614 whole entry): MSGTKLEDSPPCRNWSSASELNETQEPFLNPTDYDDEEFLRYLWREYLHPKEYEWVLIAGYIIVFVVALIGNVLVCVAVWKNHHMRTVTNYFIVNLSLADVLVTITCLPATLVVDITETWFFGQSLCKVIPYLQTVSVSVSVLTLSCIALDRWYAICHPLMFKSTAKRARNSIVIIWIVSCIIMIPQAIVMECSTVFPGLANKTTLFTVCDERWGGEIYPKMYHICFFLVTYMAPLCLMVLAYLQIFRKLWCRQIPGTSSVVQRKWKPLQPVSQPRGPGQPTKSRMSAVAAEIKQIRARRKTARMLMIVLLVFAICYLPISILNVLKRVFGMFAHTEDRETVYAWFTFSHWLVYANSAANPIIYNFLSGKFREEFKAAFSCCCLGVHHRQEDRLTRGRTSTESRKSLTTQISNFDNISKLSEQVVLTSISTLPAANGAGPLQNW
smiles,measurement,setting,value
"Cc1cc(C)nc(N2C[C@@H]3CCN(C(=O)c4cc(F)ccc4-c4cncnc4)C[C@@H]32)n1 [Example 165, (1R,6S)-8-(4,6-Dimethylpyrimidin-2-yl)-3-[(5-fluoro-2-pyrimidin-5-ylphenyl)carbonyl]-3,8-diazabicyclo[4.2.0]octane]",Ki,human orexin-2 receptor,550 nM
same,Ki,human orexin 1 receptor,10000 nM
"Cc1cc(C)nc(N2C[C@@H]3CCN(C(=O)c4cc(F)ccc4-c4ccc(N(C)C)nc4)C[C@@H]32)n1 [Example 166, 5-(2-{[(1R,6S)-8-(4,6-Dimethylpyrimidin-2-yl)-3,8-diazabicyclo[4.2.0]oct-3-yl]carbonyl}-4-fluorophenyl)-N,N-dimethylpyridin-2-amine]",Ki,human orexin-2 receptor,72 nM
same,Ki,human orexin 1 receptor,3840 nM
"Cc1cc(C)nc(N2C[C@@H]3CCN(C(=O)c4cccc5c4-c4ccccc4C5)C[C@@H]32)n1 [Example 167, (1R,6S)-8-(4,6-Dimethylpyrimidin-2-yl)-3-(9H-fluoren-4-ylcarbonyl)-3,8-diazabicyclo[4.2.0]octane]",Ki,human orexin-2 receptor,55 nM
same,Ki,human orexin 1 receptor,219 nM
"Cc1cc(C)nc(N2C[C@@H]3CCN(C(=O)c4cccc5c4-c4ccccc4C5=O)C[C@@H]32)n1 [Example 168, 4-{[(1R,6S)-8-(4,6-Dimethylpyrimidin-2-yl)-3,8-diazabicyclo[4.2.0]oct-3-yl]carbonyl}-9H-fluoren-9-one]",Ki,human orexin-2 receptor,740 nM
same,Ki,human orexin 1 receptor,7300 nM
"Cc1cc(C)nc(N2C[C@@H]3CCN(C(=O)c4cc(F)ccc4-c4ccn[nH]4)C[C@@H]32)n1 [Example 171, (1R,6S)-8-(4,6-dimethylpyrimidin-2-yl)-3-{[5-fluoro-2-(1H-pyrazol-3-yl)phenyl]carbonyl}-3,8-diazabicyclo[4.2.0]octane]",Ki,human orexin-2 receptor,15 nM
same,Ki,human orexin 1 receptor,392 nM
"Cc1cc(C)nc(N2C[C@@H]3CCN(C(=O)c4nc(C)sc4-c4ccc(F)cc4)C[C@@H]32)n1 [Example 173, (1R,6S)-8-(4,6-Dimethylpyrimidin-2-yl)-3-{[5-(4-fluorophenyl)-2-methyl-1,3-thiazol-4-yl]carbonyl}-3,8-diazabicyclo[4.2.0]octane]",Ki,human orexin-2 receptor,62 nM
same,Ki,human orexin 1 receptor,2150 nM
"Cc1cc(C)nc(N2C[C@@H]3CCN(C(=O)c4cn[nH]c4-c4ccccc4)C[C@@H]32)n1 [Example 174, (1R,6S)-8-(4,6-Dimethylpyrimidin-2-yl)-3-[(5-phenyl-1H-pyrazol-4-yl)carbonyl]-3,8-diazabicyclo[4.2.0]octane]",Ki,human orexin-2 receptor,6000 nM
same,Ki,human orexin 1 receptor,10000 nM
"Cc1cc(C)nc(N2C[C@@H]3CCN(C(=O)c4c(-c5ccccc5)noc4C)C[C@@H]32)n1 [Example 175, (1R,6S)-8-(4,6-Dimethylpyrimidin-2-yl)-3-[(5-methyl-3-phenylisoxazol-4-yl)carbonyl]-3,8-diazabicyclo[4.2.0]octane]",Ki,human orexin-2 receptor,488 nM
same,Ki,human orexin 1 receptor,10000 nM
"Cc1cc(C)nc(N2C[C@@H]3CCN(C(=O)c4cnoc4-c4ccccc4)C[C@@H]32)n1 [Example 176, (1R,6S)-8-(4,6-Dimethylpyrimidin-2-yl)-3-[(5-phenylisoxazol-4-yl)carbonyl]-3,8-diazabicyclo[4.2.0]octane]",Ki,human orexin-2 receptor,1300 nM
same,Ki,human orexin 1 receptor,10000 nM
"Cc1cc(C)nc(N2C[C@@H]3CCN(C(=O)c4ncoc4-c4ccccc4F)C[C@@H]32)n1 [Example 177, (1R,6S)-8-(4,6-Dimethylpyrimidin-2-yl)-3-{[5-(2-fluorophenyl)-1,3-oxazol-4-yl]carbonyl}-3,8-diazabicyclo[4.2.0]octane]",Ki,human orexin-2 receptor,340 nM
same,Ki,human orexin 1 receptor,2400 nM
"Cc1cc(C)nc(N2C[C@@H]3CCN(C(=O)c4ncoc4-c4cccc(Cl)c4)C[C@@H]32)n1 [Example 178, (1R,6S)-3-{[5-(3-Chlorophenyl)-1,3-oxazol-4-yl]carbonyl}-8-(4,6-dimethylpyrimidin-2-yl)-3,8-diazabicyclo[4.2.0]octane]",Ki,human orexin-2 receptor,126 nM
same,Ki,human orexin 1 receptor,7000 nM
"Cc1cc(C)nc(N2C[C@@H]3CCN(C(=O)c4c(C)noc4-c4cc(C)on4)C[C@@H]32)n1 [Example 179, 4′-{[(1R,6S)-8-(4,6-Dimethylpyrimidin-2-yl)-3,8-diazabicyclo[4.2.0]oct-3-yl]carbonyl}-3′,5-dimethyl-3,5′-biisoxazole]",Ki,human orexin-2 receptor,1100 nM
same,Ki,human orexin 1 receptor,10000 nM
"Cc1cc(C)nc(N2C[C@@H]3CCN(C(=O)c4c(C)noc4-c4snnc4C)C[C@@H]32)n1 [Example 180, (1R,6S)-8-(4,6-Dimethylpyrimidin-2-yl)-3-{[3-methyl-5-(4-methyl-1,2,3-thiadiazol-5-yl)isoxazol-4-yl]carbonyl}-3,8-diazabicyclo[4.2.0]octane]",Ki,human orexin-2 receptor,6500 nM
same,Ki,human orexin 1 receptor,10000 nM
"Cc1cc(C)nc(N2C[C@@H]3CCN(C(=O)c4ncccc4Br)C[C@@H]32)n1 [Example 181, (1R,6S)-3-[(3-Bromopyridin-2-yl)carbonyl]-8-(4,6-dimethylpyrimidin-2-yl)-3,8-diazabicyclo[4.2.0]octane]",Ki,human orexin-2 receptor,1300 nM
same,Ki,human orexin 1 receptor,10000 nM
"Cc1cc(C)nc(N2C[C@@H]3CCN(C(=O)c4ncccc4-n4ccnn4)C[C@@H]32)n1 [Example 182, (1R,6S)-8-(4,6-Dimethylpyrimidin-2-yl)-3-{[3-(1H-1,2,3-triazol-1-yl)pyridin-2-yl]carbonyl}-3,8-diazabicyclo[4.2.0]octane]",Ki,human orexin-2 receptor,1500 nM
same,Ki,human orexin 1 receptor,10000 nM
"Cc1cc(C)nc(N2C[C@@H]3CCN(C(=O)c4ncccc4-n4nccn4)C[C@@H]32)n1 [Example 183, (1R,6S)-8-(4,6-Dimethylpyrimidin-2-yl)-3-{[3-(2H-1,2,3-triazol-2-yl)pyridin-2-yl]carbonyl}-3,8-diazabicyclo[4.2.0]octane]",Ki,human orexin-2 receptor,200 nM
same,Ki,human orexin 1 receptor,10000 nM
"Cc1cc(C)nc(N2C[C@@H]3CCN(C(=O)c4cccc(F)c4-c4cc[nH]n4)C[C@@H]32)n1 [Example 184, (1R,6S)-8-(4,6-Dimethylpyrimidin-2-yl)-3-{[3-fluoro-2-(1H-pyrazol-3-yl)phenyl]carbonyl}-3,8-diazabicyclo[4.2.0]octane]",Ki,human orexin-2 receptor,9 nM
same,Ki,human orexin 1 receptor,156 nM
"Cc1cc(C)nc(N2C[C@@H]3CCN(C(=O)c4cccc(F)c4-c4ncccn4)C[C@@H]32)n1 [Example 185, (1R,6S)-8-(4,6-Dimethylpyrimidin-2-yl)-3-[(3-fluoro-2-pyrimidin-2-ylphenyl)carbonyl]-3,8-diazabicyclo[4.2.0]octane]",Ki,human orexin-2 receptor,56 nM
same,Ki,human orexin 1 receptor,600 nM
"Cc1cc(N2C[C@@H]3CCN(C(=O)c4cc(F)ccc4-n4nccn4)C[C@@H]32)nc(N)n1 [Example 186, 4-[(1R,6S)-3-{[5-Fluoro-2-(2H-1,2,3-triazol-2-yl)phenyl]carbonyl}-3,8-diazabicyclo[4.2.0]oct-8-yl]-6-methylpyrimidin-2-amine]",Ki,human orexin-2 receptor,680 nM
same,Ki,human orexin 1 receptor,10000 nM
"CNc1nc(C)cc(N2C[C@@H]3CCN(C(=O)c4cc(F)ccc4-n4nccn4)C[C@@H]32)n1 [Example 187, 4-[(1R,6S)-3-{[5-Fluoro-2-(2H-1,2,3-triazol-2-yl)phenyl]carbonyl}-3,8-diazabicyclo[4.2.0]oct-8-yl]-N,6-dimethylpyrimidin-2-amine]",Ki,human orexin-2 receptor,310 nM
same,Ki,human orexin 1 receptor,10000 nM
"Cc1cc(C)nc(N2C[C@@H]3CCN(C(=O)c4cc(F)ccc4-c4ccn(C)n4)C[C@@H]32)n1 [Example 188, (1R,6S)-8-(4,6-Dimethylpyrimidin-2-yl)-3-{[5-fluoro-2-(1-methyl-1H-pyrazol-3-yl)phenyl]carbonyl}-3,8-diazabicyclo[4.2.0]octane]",Ki,human orexin-2 receptor,35 nM
same,Ki,human orexin 1 receptor,1300 nM
"CN(C)c1cc(N2C[C@@H]3CCN(C(=O)c4cc(F)ccc4-n4nccn4)C[C@@H]32)ncn1 [Example 189, 6-[(1R,6S)-3-{[5-Fluoro-2-(2H-1,2,3-triazol-2-yl)phenyl]carbonyl}-3,8-diazabicyclo[4.2.0]oct-8-yl]-N,N-dimethylpyrimidin-4-amine]",Ki,human orexin-2 receptor,110 nM
same,Ki,human orexin 1 receptor,4100 nM
"CNc1cc(N2C[C@@H]3CCN(C(=O)c4cc(F)ccc4-n4nccn4)C[C@@H]32)ncn1 [Example 190, 6-[(1R,6S)-3-{[5-Fluoro-2-(2H-1,2,3-triazol-2-yl)phenyl]carbonyl}-3,8-diazabicyclo[4.2.0]oct-8-yl]-N-methylpyrimidin-4-amine]",Ki,human orexin-2 receptor,1100 nM
same,Ki,human orexin 1 receptor,10000 nM
"Cc1nc(N)cc(N2C[C@@H]3CCN(C(=O)c4cc(F)ccc4-n4nccn4)C[C@@H]32)n1 [Example 191, 6-[(1R,6S)-3-{[5-Fluoro-2-(2H-1,2,3-triazol-2-yl)phenyl]carbonyl}-3,8-diazabicyclo[4.2.0]oct-8-yl]-2-methylpyrimidin-4-amine]",Ki,human orexin-2 receptor,230 nM
same,Ki,human orexin 1 receptor,10000 nM
"Nc1cc(N2C[C@@H]3CCN(C(=O)c4cc(F)ccc4-n4nccn4)C[C@@H]32)nc(N)n1 [Example 192, 6-[(1R,6S)-3-{[5-Fluoro-2-(2H-1,2,3-triazol-2-yl)phenyl]carbonyl}-3,8-diazabicyclo[4.2.0]oct-8-yl]pyrimidine-2,4-diamine]",Ki,human orexin-2 receptor,1400 nM
same,Ki,human orexin 1 receptor,10000 nM
"O=C(c1cc(F)ccc1-n1nccn1)N1CC[C@H]2CN(c3cc(NC4CC4)ncn3)[C@H]2C1 [Example 194, N-Cyclopropyl-6-[(1R,6S)-3-{[5-fluoro-2-(2H-1,2,3-triazol-2-yl)phenyl]carbonyl}-3,8-diazabicyclo[4.2.0]oct-8-yl]pyrimidin-4-amine]",Ki,human orexin-2 receptor,650 nM
same,Ki,human orexin 1 receptor,10000 nM
"Cc1ccc(C(F)(F)F)c(C(=O)N2CC[C@H]3CN(c4ccnc(-c5ccccc5)n4)[C@H]3C2)c1 [Example 195, (5-Methyl-2-(trifluoromethyl)phenyl)((1R,6S)-8-(2-phenylpyrimidin-4-yl)-3,8-diazabicyclo[4.2.0]octan-3-yl)methanone]",Ki,human orexin-2 receptor,28 nM
same,Ki,human orexin 1 receptor,16 nM
